Assay results from US20260226044A1, “PREPARATION OF AN S1P RECEPTOR MODULATOR” (Oppilan Pharma Limited, priority 2023, published 2026).

Target: T1, human S1P1 (Homo sapiens, UniProt P21453)
T1 construct: CHO-K1 Gαqi5 cells expression full-length human S1P1; expressed in transfected cells; host or cells: CHO-K1 Gαqi5 cells (membranes)
Assay: GTPγS binding assay (scintillation proximity assay, S1P1 membranes)
Assay type: biochemical
Conditions: membranes from CHO-K1 Gαqi5 cells expressing full-length human S1P1; GTPγ35S; 60 minutes incubation
Description: Example 4: GTPyS Binding Assay
S1P1 membrane is prepared from CHO-K1 Gαqi5 cells expression full-length human S1P1. Scintillation proximity assay (SPA) is performed by incubating membranes, GTPγ^35S, and compounds at various concentrations for 60 minutes. Wheat germ agglutinin-coated SPA beads are added and incubated for 60 minutes before centrifugation and scintillation counting.

T1 sequence (P21453 whole entry): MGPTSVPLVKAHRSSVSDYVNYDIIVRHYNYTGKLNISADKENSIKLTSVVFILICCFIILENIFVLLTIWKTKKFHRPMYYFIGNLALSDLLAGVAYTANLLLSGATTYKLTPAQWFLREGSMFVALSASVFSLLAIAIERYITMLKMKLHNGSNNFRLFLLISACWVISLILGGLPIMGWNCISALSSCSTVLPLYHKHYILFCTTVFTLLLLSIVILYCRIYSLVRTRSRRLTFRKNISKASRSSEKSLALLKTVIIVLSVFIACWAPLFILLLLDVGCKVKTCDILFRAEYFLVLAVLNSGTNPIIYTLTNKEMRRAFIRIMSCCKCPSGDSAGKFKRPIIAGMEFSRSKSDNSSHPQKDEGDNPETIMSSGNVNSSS

EC50: < 1 µM
Structure (SMILES): O=C1CC[C@@H](Oc2cc(Cl)c(-c3noc(-c4cn5cc(C(F)(F)F)cc(Cl)c5n4)n3)cc2Cl)CN1 [Compound 1, (R)-5-(2,5-dichloro-4-(5-(8-chloro-6-(trifluoromethyl)imidazo[1,2-a]pyridin-2-yl)-1,2,4-oxadiazol-3-yl)phenoxy)piperidin-2-one]
